Reference: PubChem BioAssay AID2060884 (Molecular Pharmacology Branch, DTP, NCI, 2025)
pIC50: −log10 of the molar value. Where “and” joins values, the source holds several entries; their conditions need not be identical. Equal values may be shown once.

Test system: NCI-H929 complex spheroids, viability % test/control
Experiment: Anticancer human tumor NCI-H929 cell line growth inhibition [RAS];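 also: compound exposure lasted seven days before viability was read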;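 as to viability, T/C: 100% = DMSO vehicle control viability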
Settings: for viability, T/C: stronger effect = lower value; active = viability on the fitted dose curve at most 10% of control; inactive = the rest
In short: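 Tumour cells grown as complex spheroids with HUVEC endothelial cells and mesenchymal stem cells, treated with RAS pathway inhibitor combinations. Each agent spans half-log steps from near clinical Cmax, or 10 microM where Cmax is unknown.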

[1] = curve of first compound, second compound 0.00316 µM
[2] = curve of first compound, second compound 0.01 µM
[3] = curve of first compound, second compound 0.0316 µM
[4] = curve of first compound, second compound 0.1 µM
[5] = curve of first compound, second compound 0.316 µM
[6] = curve of first compound, second compound 1 µM
[7] = second compound 0.00316 µM, first compound 0.00316 µM
[8] = second compound 0.00316 µM, first compound 0.01 µM
[9] = second compound 0.00316 µM, first compound 0.0316 µM
[10] = second compound 0.00316 µM, first compound 0.1 µM
[11] = second compound 0.00316 µM, first compound 0.316 µM
[12] = second compound 0.00316 µM, first compound 1 µM
[13] = second compound 0.01 µM, first compound 0.00316 µM
[14] = second compound 0.01 µM, first compound 0.01 µM
[15] = second compound 0.01 µM, first compound 0.0316 µM
[16] = second compound 0.01 µM, first compound 0.1 µM
[17] = second compound 0.01 µM, first compound 0.316 µM
[18] = second compound 0.01 µM, first compound 1 µM
[19] = second compound 0.0316 µM, first compound 0.00316 µM
[20] = second compound 0.0316 µM, first compound 0.01 µM
[21] = second compound 0.0316 µM, first compound 0.0316 µM
[22] = second compound 0.0316 µM, first compound 0.1 µM
[23] = second compound 0.0316 µM, first compound 0.316 µM
[24] = second compound 0.0316 µM, first compound 1 µM
[25] = second compound 0.1 µM, first compound 0.00316 µM
[26] = second compound 0.1 µM, first compound 0.01 µM
[27] = second compound 0.1 µM, first compound 0.0316 µM
[28] = second compound 0.1 µM, first compound 0.1 µM
[29] = second compound 0.1 µM, first compound 0.316 µM
[30] = second compound 0.1 µM, first compound 1 µM
[31] = second compound 0.316 µM, first compound 0.00316 µM
[32] = second compound 0.316 µM, first compound 0.01 µM
[33] = second compound 0.316 µM, first compound 0.0316 µM
[34] = second compound 0.316 µM, first compound 0.1 µM
[35] = second compound 0.316 µM, first compound 0.316 µM
[36] = second compound 0.316 µM, first compound 1 µM
[37] = second compound 1 µM, first compound 0.00316 µM
[38] = second compound 1 µM, first compound 0.01 µM
[39] = second compound 1 µM, first compound 0.0316 µM
[40] = second compound 1 µM, first compound 0.1 µM
[41] = second compound 1 µM, first compound 0.316 µM
[42] = second compound 1 µM, first compound 1 µM

C[C@@H](NC(=O)c1ncnc(N)c1Cl)c1ncc(C(=O)Nc2cc(C(F)(F)F)c(Cl)cn2)s1
< 5.00: pIC50 (curve of compound)
inactive: viability, T/C (compound 0.0316 µM) 106% [middle of 4 runs] | viability, T/C (compound 0.1 µM) 103% (2×) and 98.6% and 92.7% | viability, T/C (compound 0.316 µM) 98.6% [middle of 4 runs] | viability, T/C (compound 1 µM) 95.3% [middle of 4 runs] | viability, T/C (compound 3.16 µM) 97.7% [middle of 4 runs] | viability, T/C (compound 10 µM) 108% [middle of 4 runs]

C=CC(=O)Nc1cc(Nc2nccc(-c3cn(C)c4ccccc34)n2)c(OC)cc1N(C)CCN(C)C + C=CC(=O)N1CCN(c2nc(OCC3CCCN3C)nc3c(F)c(-c4nc(N)cc(C)c4C(F)(F)F)c(Cl)cc23)C(C)C1
< 6.00: pIC50 [1] | pIC50 [2] | pIC50 [3] | pIC50 [4] | pIC50 [5] | pIC50 [6]
inactive: viability, T/C [7] 93.4% | viability, T/C [8] 97.7% | viability, T/C [9] 102% | viability, T/C [10] 95.2% | viability, T/C [11] 100% | viability, T/C [12] 103% | viability, T/C [13] 101% | viability, T/C [14] 100% | viability, T/C [15] 101% | viability, T/C [16] 101% | viability, T/C [17] 99.4% | viability, T/C [18] 107% | viability, T/C [19] 95.5% | viability, T/C [20] 99.8% | viability, T/C [21] 104% | viability, T/C [22] 99.3% | viability, T/C [23] 103% | viability, T/C [24] 104% | viability, T/C [25] 98.1% | viability, T/C [26] 101% | viability, T/C [27] 108% | viability, T/C [28] 99.1% | viability, T/C [29] 101% | viability, T/C [30] 107% | viability, T/C [31] 101% | viability, T/C [32] 104% | viability, T/C [33] 101% | viability, T/C [34] 99.5% | viability, T/C [35] 104% | viability, T/C [36] 105% | viability, T/C [37] 106% | viability, T/C [38] 106% | viability, T/C [39] 107% | viability, T/C [40] 105% | viability, T/C [41] 107% | viability, T/C [42] 106%

CC(=O)OC12COC1CC(O)C1(C)C(=O)C(O)C3=C(C)C(OC(=O)C(O)C(NC(=O)OC(C)(C)C)c4ccccc4)CC(O)(C(OC(=O)c4ccccc4)C21)C3(C)C (stereo not drawn) + CCn1c(-c2cccnc2C(C)OC)c2c3cc(ccc31)N1CCOC(CC(NC(=O)C(C(C)C)N(C)C(=O)C3(F)CCN(C(=O)C#CC(C)(C)N(C)C)CC3)C(=O)N3CCCC(N3)C(=O)OCC(C)(C)C2)C1
active: viability, T/C (second compound 0.000949 µM, first compound 0.0316 µM) 0.74% | viability, T/C (second compound 0.000949 µM, first compound 0.1 µM) 0.57% | viability, T/C (second compound 0.000949 µM, first compound 0.316 µM) 0.52% | viability, T/C (second compound 0.000949 µM, first compound 1 µM) 0.54% | viability, T/C (second compound 0.000949 µM, first compound 3.16 µM) 0.6% | viability, T/C (second compound 0.000949 µM, first compound 10 µM) 0.65% | viability, T/C (second compound 0.003 µM, first compound 0.0316 µM) 0.76% | viability, T/C (second compound 0.003 µM, first compound 0.1 µM) 0.89% | viability, T/C (second compound 0.003 µM, first compound 0.316 µM) 0.7% | viability, T/C (second compound 0.003 µM, first compound 1 µM) 0.54% | viability, T/C (second compound 0.003 µM, first compound 3.16 µM) 0.6% | viability, T/C (second compound 0.003 µM, first compound 10 µM) 0.71% | viability, T/C (second compound 0.00949 µM, first compound 0.0316 µM) 0.76% | viability, T/C (second compound 0.00949 µM, first compound 0.1 µM) 0.82% | viability, T/C (second compound 0.00949 µM, first compound 0.316 µM) 0.62% | viability, T/C (second compound 0.00949 µM, first compound 1 µM) 0.64% | viability, T/C (second compound 0.00949 µM, first compound 3.16 µM) 0.66% | viability, T/C (second compound 0.00949 µM, first compound 10 µM) 0.68% | viability, T/C (second compound 0.03 µM, first compound 0.0316 µM) 0.73% | viability, T/C (second compound 0.03 µM, first compound 0.1 µM) 0.53% | viability, T/C (second compound 0.03 µM, first compound 0.316 µM) 0.75% | viability, T/C (second compound 0.03 µM, first compound 1 µM) 0.63% | viability, T/C (second compound 0.03 µM, first compound 3.16 µM) 0.5% | viability, T/C (second compound 0.03 µM, first compound 10 µM) 0.52% | viability, T/C (second compound 0.0949 µM, first compound 0.0316 µM) 0.63% | viability, T/C (second compound 0.0949 µM, first compound 0.1 µM) 0.57% | viability, T/C (second compound 0.0949 µM, first compound 0.316 µM) 0.51% | viability, T/C (second compound 0.0949 µM, first compound 1 µM) 0.63% | viability, T/C (second compound 0.0949 µM, first compound 3.16 µM) 0.58% | viability, T/C (second compound 0.0949 µM, first compound 10 µM) 0.72% | viability, T/C (second compound 0.3 µM, first compound 0.0316 µM) 0.63% | viability, T/C (second compound 0.3 µM, first compound 0.1 µM) 0.68% | viability, T/C (second compound 0.3 µM, first compound 0.316 µM) 0.63% | viability, T/C (second compound 0.3 µM, first compound 1 µM) 0.6% | viability, T/C (second compound 0.3 µM, first compound 3.16 µM) 0.65% | viability, T/C (second compound 0.3 µM, first compound 10 µM) 0.71%
> 7.50: pIC50 (curve of first compound, second compound 0.000949 µM) | pIC50 (curve of first compound, second compound 0.003 µM) | pIC50 (curve of first compound, second compound 0.00949 µM) | pIC50 (curve of first compound, second compound 0.03 µM) | pIC50 (curve of first compound, second compound 0.0949 µM) | pIC50 (curve of first compound, second compound 0.3 µM)

Nc1ccn(C2OC(CO)C(O)C2(F)F)c(=O)n1 (stereo not drawn) + C=CC(=O)N1CCN(c2nc(OCC3CCCN3C)nc3c(F)c(-c4nc(N)cc(C)c4C(F)(F)F)c(Cl)cc23)C(C)C1
7.75: pIC50 [4]
7.74: pIC50 [1] | pIC50 [2] | pIC50 [3]
active: viability, T/C [9] 1.52% | viability, T/C [10] 2.24% | viability, T/C [11] 1.73% | viability, T/C [12] 0.82% | viability, T/C [15] 1.3% | viability, T/C [16] 2.1% | viability, T/C [17] 1.62% | viability, T/C [18] 0.86% | viability, T/C [21] 1.48% | viability, T/C [22] 1.95% | viability, T/C [23] 1.12% | viability, T/C [24] 0.76% | viability, T/C [27] 1.86% | viability, T/C [28] 2.03% | viability, T/C [29] 1.73% | viability, T/C [30] 1% | viability, T/C [33] 1.08% | viability, T/C [34] 1.62% | viability, T/C [35] 1.46% | viability, T/C [36] 0.81% | viability, T/C [39] 1.88% | viability, T/C [40] 2.07% | viability, T/C [41] 0.99% | viability, T/C [42] 0.9%
inactive: viability, T/C [7] 102% | viability, T/C [8] 106% | viability, T/C [13] 97.8% | viability, T/C [14] 111% | viability, T/C [19] 94.8% | viability, T/C [20] 114% | viability, T/C [25] 99.3% | viability, T/C [26] 97.3% | viability, T/C [31] 101% | viability, T/C [32] 114% | viability, T/C [37] 103% | viability, T/C [38] 118%
7.73: pIC50 [5]
7.72: pIC50 [6]
